Assay results from ChEMBL document CHEMBL4000174, “Synthesis and antitumor activity of novel substituted uracil-1'(N)-acetic acid ester derivatives of 20(S)-camptothecins” (Eur J Med Chem, 2017).
Calls of active or inactive are those of the source. The calls are words filed in the database; no cut-off is given here.

Key:
[1] = tested on: A549; assay: Induction of apoptosis in human A549 cells assessed as late apoptotic cells at 25 nM after 24 hrs by Annexin V-FITC/propidium iodide staining based flow cytometry (reference value: 2.47%); format: functional
[2] = tested on: HCT-8; assay: Antiproliferative activity against human HCT8 cells after 96 hrs by MTT assay; format: functional, cell-based; details: HCT-8, 96 h
[3] = tested on: BGC-823; assay: Antitumor activity against human BGC823 cells xenografted in BALB/c nude mouse assessed as tumor volume at 30 mg/kg, ip administered once in a week for two weeks starting from 6 days post tumor transplantation measured 27 to 30 days post tumor transplantation relative to control; format: functional
[4] = tested on: A549; assay: Induction of apoptosis in human A549 cells assessed as late apoptotic cells at 8 nM after 24 hrs by Annexin V-FITC/propidium iodide staining based flow cytometry (reference value: 2.47%); format: functional
[5] = tested on: Mus musculus; assay: Antitumor activity in BALB/c nude mouse xenografted with human Bel7402 cells assessed as tumor volume at 60 mg/kg, ip administered once in a week for two weeks starting from 6 days post tumor transplantation measured every 3 days for 21 days (reference value: […]); details: in vivo, 504 h
[6] = tested on: H22; assay: Antitumor activity against mouse H22 cells implanted in Kunming mouse assessed as tumor growth inhibition at 100 mg/kg, ip administered once relative to control; format: functional; details: read-out: TGI
[7] = tested on: Mus musculus; assay: Toxicity in BALB/c nude mouse xenografted with human BGC823 cells assessed as tumor volume at 60 mg/kg, ip administered once in a week for two weeks starting from 6 days post tumor transplantation and measured every 3 days during compound dosing for 15 days (reference value: […]); details: in vivo, 360 h
[8] = tested on: A549; assay: Induction of apoptosis in human A549 cells assessed as viable cells at 25 nM after 24 hrs by Annexin V-FITC/propidium iodide staining based flow cytometry (reference value: 89.41%); format: functional; details: A549, 24 h, read-out: Activity
[9] = tested on: A549; assay: Induction of apoptosis in human A549 cells assessed as membrane blebbing after 24 hrs by phase contrast microscopy; format: functional, cell-based
[10] = tested on: Mus musculus; assay: Antitumor activity in BALB/c nude mouse xenografted with human Bel7402 cells assessed as tumor volume at 30 mg/kg, ip administered once in a week for two weeks starting from 6 days post tumor transplantation measured every 3 days for 21 days (reference value: 511 mm3); details: in vivo, 504 h
[11] = tested on: BGC-823; assay: Antitumor activity against human BGC823 cells xenografted in BALB/c nude mouse assessed as tumor growth inhibition at 60 mg/kg, ip administered once in a week for two weeks starting from 6 days post tumor transplantation measured 27 to 30 days post tumor transplantation relative to control; format: functional; details: BGC-823, ip, read-out: TGI
[12] = tested on: Mus musculus; assay: Toxicity in Kunming mouse implanted with mouse H22 cells assessed as survival at 60 mg/kg, ip administered twice; format: organism-based; details: in vivo
[13] = tested on: A549; assay: Induction of apoptosis in human A549 cells assessed as late apoptotic cells at 75 nM after 24 hrs by Annexin V-FITC/propidium iodide staining based flow cytometry (reference value: 2.47%); format: functional
[14] = tested on: Mus musculus; assay: Toxicity in Kunming mouse implanted with mouse H22 cells assessed as body weight at 100 mg/kg, ip administered once (reference value: 31.1 g); format: organism-based; details: in vivo
[15] = tested on: Mus musculus; assay: Toxicity in BALB/c nude mouse xenografted with human Bel7402 cells assessed as survival at 60 mg/kg, ip administered once in a week for two weeks starting from 6 days post tumor transplantation measured every 3 days for 21 days; format: organism-based; details: in vivo, 504 h
[16] = tested on: A549; assay: Induction of apoptosis in human A549 cells assessed as increase in cleaved caspase-3 level at 8 to 75 nM by Western blot method; format: functional, cell-based
[17] = tested on: A549; assay: Cell cycle arrest in human A549 cells assessed as accumulation at S phase at 75 nM after 24 hrs by propidium iodide staining based flow cytometry (reference value: 32.80%); format: functional
[18] = tested on: Bel-7402; assay: Antitumor activity against human Bel7402 cells xenografted in BALB/c nude mouse assessed as tumor growth inhibition at 30 mg/kg, ip administered once in a week for two weeks starting from 6 days post tumor transplantation measured 27 to 30 days post tumor transplantation relative to control; format: functional; details: Bel-7402, ip, read-out: TGI
[19] = tested on: Escherichia coli; assay: Inhibition of Escherichia coli topoisomerase 1-mediated relaxation of supercoiled Pcmv-6 plasmid DNA at 30 to 50 uM after 30 mins by ethidium bromide staining based agarose gel electrophoretic analysis
[20] = tested on: Mus musculus; assay: Toxicity in Kunming mouse implanted with mouse H22 cell assessed as survival at 40 mg/kg, ip administered on day 1 and day 5; format: organism-based; details: in vivo
[21] = tested on: Mus musculus; assay: Toxicity in BALB/c nude mouse xenografted with human BGC823 cells assessed as mouse survival at 30 mg/kg, ip administered once in a week for two weeks starting from 6 days post tumor transplantation; format: organism-based; details: in vivo, 144 h
[22] = tested on: Mus musculus; assay: Toxicity in Kunming mouse implanted with mouse H22 cells assessed as body weight at 40 mg/kg, ip administered on day 1 and day 5 (reference value: 32.5 g); format: organism-based; details: in vivo
[23] = tested on: A549; assay: Induction of apoptosis in human A549 cells assessed as decrease in Bcl-2 protein level at 8 to 75 nM by Western blot method; format: functional, cell-based
[24] = tested on: A549; assay: Cell cycle arrest in human A549 cells assessed as accumulation at G0/G1 phase at 75 nM after 24 hrs by propidium iodide staining based flow cytometry (reference value: 58.84%); format: functional
[25] = tested on: Mus musculus; assay: Toxicity in BALB/c nude mouse xenografted with human BGC823 cells assessed as body weight at 30 mg/kg, ip administered once in a week for two weeks starting from 6 days post tumor transplantation and measured every 3 days during compound dosing for 15 days (reference value: 23.6 g); format: organism-based; details: in vivo, 360 h
[26] = tested on: A2780; assay: Antiproliferative activity against human A2780 cells after 96 hrs by MTT assay; format: functional, cell-based; details: A2780, 96 h
[27] = tested on: A549; assay: Cell cycle arrest in human A549 cells assessed as accumulation at S phase at 25 nM after 24 hrs by propidium iodide staining based flow cytometry (reference value: 32.80%); format: functional
[28] = tested on: Mus musculus; assay: Toxicity in BALB/c nude mouse xenografted with human Bel7402 cells assessed as body weight at 30 mg/kg, ip administered once in a week for two weeks starting from 6 days post tumor transplantation measured every 3 days for 21 days (reference value: 14.5 g); format: organism-based; details: in vivo, 504 h
[29] = tested on: Mus musculus; assay: Toxicity in BALB/c nude mouse xenografted with human Bel7402 cells assessed as body weight at 60 mg/kg, ip aadministered once in a week for two weeks starting from 6 days post tumor transplantation measured every 3 days for 21 days (reference value: 14.5 g); format: organism-based; details: in vivo, 504 h
[30] = tested on: A549; assay: Cell cycle arrest in human A549 cells assessed as accumulation at G2/M phase at 25 nM after 24 hrs by propidium iodide staining based flow cytometry (reference value: 8.36%); format: functional
[31] = tested on: A549; assay: Induction of apoptosis in human A549 cells assessed as viable cells at 8 nM after 24 hrs by Annexin V-FITC/propidium iodide staining based flow cytometry (reference value: 89.41%); format: functional; details: A549, 24 h, read-out: Activity

CCc1c2c(nc3ccccc13)-c1cc3c(c(=O)n1C2)COC(=O)[C@@]3(CC)OC(=O)Cn1cc(F)c(=O)[nH]c1=O
Activity [1]: 26.6% | IC50 [2]: 7 nM | T/C [3]: 12.65% | Activity [4]: 13.06% | tumor volume [5]: 127 mm³ | inhibition in vivo at 100 mg/kg [6]: 39.1% | tumor volume [7]: 143 mm³ | viability at 0.025 µM [8]: 53.4% | Activity [9]: Dose-dependent effect | tumor volume [10]: 231 mm³ | inhibition in vivo at 60 mg/kg [11]: 96% | Activity [12]: Non-Toxic | Activity [13]: 34.98% | Activity [14]: 29.8 g | Activity [15]: Non-Toxic | Activity [16]: Active | Activity [17]: 30.76% | inhibition in vivo at 30 mg/kg [18]: 62.6% | inhibition [19]: Active | Activity [20]: Non-Toxic | Activity [21]: Non-Toxic | Activity [22]: 27.3 g | Activity [23]: Active | Activity [24]: 2.17% | Activity [25]: 19.1 g | IC50 [26]: 147 nM | Activity [27]: 21.17% | Activity [28]: Non-Toxic | Activity [29]: Non-Toxic | Activity [30]: 71.74% | viability at 0.008 µM [31]: 80.2%
